From US20250195488A1, “MEDICINE CONTAINING VITAMIN D DERIVATIVE OR PHARMACEUTICALLY ACCEPTABLE SALT OR SOLVATE THEREOF, USED IN COMBINATION WITH IMMUNOMODULATORY SUBSTANCE” (TEEJIN PHARMA LIMITED, priority 2022, published 2025)

Legend:
[1] = tested on: rat oligodendrocyte progenitor cells; assay: Promotive activity of rat oligodendrocyte progenitor cell differentiation-1 (MBP gene expression, mRNA); type: cell-based; settings: 96 h, read-out: promotive activity at T3 base (MBP gene expression; DMSO 0%, T3 100%)
Protocol: Regarding vitamin D derivatives, which was confirmed to act on the vitamin D receptor (VDR) in Example 352, the promotive activity of oligodendrocyte progenitor cell (OPC) differentiation was evaluated by MBP gene expression (mRNA).
A forebrain obtained from SD rat (Charles River Japan, 1 day old) was crushed with 70 μm Cell Strainer (Falcon #352350), and a cell suspension was prepared by collecting the cells in oligodendrocyte progenitor cell separation medium (20% FBS/2 mM Glutamax (Gibco #35050-061)/i mM sodium pyruvate (Gibco #11360-070)/1% penicillin-streptomycin (Invitrogen #15140-122)/DMEM (Gibco #11960-044)). The cell suspension was seeded in a poly-D-lysine coated T75 flask (Thermo Fisher Scientific #132704) and cultured for about 2 weeks. After culturing, the flask was shaken using a rotary shaker ([…] #WB-101SRC) for about 1 hour (37° C., 100 rpm), and the supernatant was discarded to remove microglia. Subsequently, oligodendrocyte progenitor cell separation medium was added to the flask, and the mixture was similarly shaken for about 22 hours (37° C., 200 rpm), and the supernatant was collected to prepare oligodendrocyte progenitor cells. […]

[2] = Evaluation of calcium increasing action in normal mice; settings: 2 weeks; for Serum calcium conc.: C57BL/6J mice, Vehicle 8.9
Protocol: After acclimatizing C57BL/6J mice (7 weeks old, male) for 1 week, the mice were divided into groups of 5 mice based on the body weight, and administration of the compound or vehicle was started. The administration solution used was a compound (in ethanol) or ethanol diluted 100-fold with 0.1% Trion X-100 (SIGMA #X100-100 ML)/saline, and the repeated oral administration at once a day was performed. After administration of 2 weeks, euthanasia was performed by collecting all blood under general anesthesia.

[3] = Evaluation of brain penetration in mice; type: in vivo, mouse; settings: C57BL/6J mice; for Concentration in brain (mean ± SD) at brain Cmax: Test 2: 0.2 mg/kg single oral dose, n=3
Protocol: The administration solution was administered orally to C57BL/6J mice (8 weeks old, male, n=3) at a single dose (1 mg/kg). Mice were euthanized at 6 points of 0.25, 0.5, 1, 2, 4, and 8 hours after administration, and plasma and brain sampling were performed. After preparing a homogenate from the collected brain using Tissue Lyser II (QIAGEN #85300), acetonitrile was added to the homogenate and the homogenate was centrifuged (12000 rpm, 5 minutes) to extract the administered test compound contained in the brain. Similarly, the plasma was subjected to addition of acetonitrile and centrifugal separation to extract the administered test compound contained in the plasma. Each extracted sample was subjected to measurement of the concentration of administered test compound using LC/MS/MS (SHIMADZU UFLC/MS/MS (8050)).
The administration solution was administered orally to C57BL/6J mice (8 weeks old, male, n=3) at a single dose (0.2 mg/kg). Mice were euthanized at 6 points of 0.25, 0.5, 1, 2, 4, and 8 hours after administration, and plasma and brain sampling were performed. After preparing a homogenate from the collected brain using Tissue Lyser II (QIAGEN #85300), acetonitrile was added to the homogenate and the homogenate was centrifuged (12000 rpm, 5 minutes) to extract the administered compound contained in the brain. Similarly, the plasma was subjected to addition of acetonitrile and centrifugal separation to extract the administered test compound contained in the plasma. Each extracted sample was subjected to measurement of the concentration of administered test compound using LC/MS/MS (SHIMADZU UFLC/MS/MS (8050)).

[4] = tested on: mouse experimental autoimmune encephalomyelitis model; assay: Combination therapy with the vitamin D derivative and an immunosuppressant (fingolimod) in mouse experimental autoimmune encephalomyelitis model; type: in vivo; settings: for clinical score on the day after final administration (Day 30): oral once a day, two weeks
Protocol: Using a mouse experimental autoimmune encephalomyelitis model, we evaluated the efficacy of the vitamin D derivative of the present invention in combination with fingolimod (an immunosuppressant) approved as a therapeutic drug for multiple sclerosis.
A mouse experimental autoimmune encephalomyelitis model was generated using the Hooke Kit MOG35-55/CFA Emulsion PTX (Cosmo Bio #EK-2110). C57BL/6J mice (11 weeks old, female) were anesthetized with 2.5% isoflurane inhalation and administered 0.1 mL of MOG35-55-CFA subcutaneously to the back and base of the tail, and then two hours later, administered 0.1 mL of pertussis toxin (PTX) intraperitoneally for the initial immunization. One day after the first immunization, 0.1 mL of PTX was administered intraperitoneally again. After the first immunization, clinical scores were measured once a day based on the following criteria. • 0 No abnormality • 0.5 Decrease in tension at the tip of the tail • 1.0 Limp tail • 1.5 Limp tail, and weakness of one hind limb • 2.0 Limp tail, and weakness of both hind limbs with abnormal gait • 2.5 Limp tail, and partial paralysis of one hind limb or abnormal righting reflex • 3.0 Limp tail, and partial paralysis of both hind limbs • 3.5 Limp tail, and paralysis of one hind limb • 4.0 Limp tail, and paralyses of both hind limbs • 4.5 Limp tail, paralyses of both hind legs, and weakness of one forelimb • 5.0 Limp tail, paralyses of both hind limbs, and weakness of both forelimbs (moribund)
Sixteen days after the first immunization, the disease-induced groups were divided into six groups of eight mice each based on the clinical scores, and administration of the compound (D023 6 g/kg) or vehicle was started. […] Two weeks after administration, the mice were euthanized and their spinal cords and whole blood were collected. The intact group indicates a non-treated group.

[5] = compound D023 + fingolimod 0.1 mg/kg (Combination L) vs single group of fingolimod 0.1 mg/kg
[6] = compound D023 + fingolimod 1.0 mg/kg (Combination H) vs single group of fingolimod 1.0 mg/kg

| SMILES | Calcium conc. Fluctuation range ([2]; 20 μg/kg oral once a day) [mg/dL] | Serum calcium conc. ([2]; 20 μg/kg oral once a day) [mg/dL] | Calcium conc. Fluctuation range ([2]; 60 μg/kg oral once a day) [mg/dL] | Serum calcium conc. ([2]; 60 μg/kg oral once a day) [mg/dL] | Calcium conc. Fluctuation range ([2]; 200 μg/kg oral once a day) [mg/dL] | Serum calcium conc. ([2]; 200 μg/kg oral once a day) [mg/dL] | Concentration in brain (mean ± SD) at brain Cmax [3] [pmol/g] | further results |
| --- | --- | --- | --- | --- | --- | --- | --- | --- |
| COC1(C)CCCN(C[C@@H](C)[C@H]2CC[C@H]3/C(=C/C=C4C[C@@H](O)C[C@H](O)C4)CCC[C@]23C)C1 (stereo partly drawn) [Compound C045b, (1R,3R)-5-(2-((1R,3aS,7aR,E)-1-((2S)-1-(3-methoxy-3-methylpiperidine-1-yl)propan-2-yl)-7a-methyloctahydro-4H-inden-4-ylidene)ethylidene)cyclohexane-1,3-diol] | – | – | – | – | – | – | – | activation at 1 µM [1]: ≥ 20% |
| C[C@H](CN1CCOC[C@@H]1C)[C@H]1CC[C@H]2/C(=C/C=C3C[C@@H](O)C[C@H](O)C3)CCC[C@]12C [Compound G004, (1R,3R)-5-(2-((1R,3aS,7aR,E)-7a-methyl-1-((S)-1-((S)-3-methylmorpholino)propan-2-yl)octahydro-4H-inden-4-ylidene)ethylidene)cyclohexane-1,3-diol] | 0 | 8.9 | -0.1 | 8.8 | 0.1 | 9.0 | 171.2 ± 37.4 | – |
| C[C@H](CN1CCOC[C@H]1C)[C@H]1CC[C@H]2/C(=C/C=C3C[C@@H](O)C[C@H](O)C3)CCC[C@]12C [Compound G005, (1R,3R)-5-(2-((1R,3aS,7aR,E)-7a-methyl-1-((S)-1-((R)-3-methylmorpholino)propan-2-yl)octahydro-4H-inden-4-ylidene)ethylidene)cyclohexane-1,3-diol] | 0.2 | 9.1 | 0.2 | 9.1 | 0.1 | 9.0 | 140.8 ± 17.6 | – |
| C[C@H](CCN1CCOCC1)[C@H]1CC[C@H]2/C(=C/C=C3C[C@@H](O)C[C@H](O)C3)CCC[C@]12C [Compound D023, (1R,3R)-5-(2-((1R,3aS,7aR,E)-7a-methyl-1-((R)-4-morpholinobutan-2-yl)octahydro-4H-inden-4-ylidene)ethylidene)cyclohexane-1,3-diol] | – | – | – | – | – | – | – | blood lymphocyte count on the day after final administration (Day 30) [4, 5]: no significant difference; clinical score on the day after final administration (Day 30) [4, 5]: significantly lower clinical score; blood lymphocyte count on the day after final administration (Day 30) [4, 6]: neither was there a significant difference; clinical score on the day after final administration (Day 30) [4, 6]: significantly lower clinical score |
| C[C@H](CN1CCOCC1(C)C)[C@H]1CC[C@H]2/C(=C/C=C3C[C@@H](O)C[C@H](O)C3)CCC[C@]12C [Compound G006, (1R,3R)-5-(2-((1R,3aS,7aR,E)-1-((S)-1-(3,3-dimethylmorpholino)propan-2-yl)-7a-methyloctahydro-4H-inden-4-ylidene)ethylidene)cyclohexane-1,3-diol] | 0 | 8.9 | 0 | 8.9 | -0.3 | 8.6 | 137.8 ± 11.5 | – |
| C[C@H](CN1CCOC2(CC2)C1)[C@H]1CC[C@H]2/C(=C/C=C3C[C@@H](O)C[C@H](O)C3)CCC[C@]12C [Compound D019, (1R,3R)-5-(2-((1R,3aS,7aR,E)-1-((S)-1-(4-oxa-7-azaspiro[2.5]octan-7-yl)propan-2-yl)-7a-methyloctahydro-4H-inden-4-ylidene)ethylidene)cyclohexane-1,3-diol] | – | – | – | – | – | – | – | Concentration ratio in brain/in blood at brain Cmax ([3]; Test 1: 1 mg/kg single oral dose): 2.89 |
